Measurements from article PMC9760430, “A stapled chromogranin A-derived peptide homes in on tumors that express αvβ6 or αvβ8 integrins” (International Journal of Biological Sciences, 2023).
Peptide text beside a SMILES is read from it. * marks the point of attachment. X1 = CC1(C)C(/C=C/C2=C(Oc3ccc(S(=O)(=O)O)cc3)C(=C\C=C3/N(CCCCCC(=O)NCCN4C(=O)CC(*)C4=O)c4ccc(S(=O)(=O)O)cc4C3(C)C)/CCC2)=[N+](CCCCS(=O)(=O)O)c2ccc(S(=O)(=O)[O-])cc21

Molecular target: T1, murine αvβ6 (Mus musculus, UniProt P43406+Q9Z0T9)
T1 construct: purchased Bio-Techne
T1 sequence (P43406 31-988 limits assumed): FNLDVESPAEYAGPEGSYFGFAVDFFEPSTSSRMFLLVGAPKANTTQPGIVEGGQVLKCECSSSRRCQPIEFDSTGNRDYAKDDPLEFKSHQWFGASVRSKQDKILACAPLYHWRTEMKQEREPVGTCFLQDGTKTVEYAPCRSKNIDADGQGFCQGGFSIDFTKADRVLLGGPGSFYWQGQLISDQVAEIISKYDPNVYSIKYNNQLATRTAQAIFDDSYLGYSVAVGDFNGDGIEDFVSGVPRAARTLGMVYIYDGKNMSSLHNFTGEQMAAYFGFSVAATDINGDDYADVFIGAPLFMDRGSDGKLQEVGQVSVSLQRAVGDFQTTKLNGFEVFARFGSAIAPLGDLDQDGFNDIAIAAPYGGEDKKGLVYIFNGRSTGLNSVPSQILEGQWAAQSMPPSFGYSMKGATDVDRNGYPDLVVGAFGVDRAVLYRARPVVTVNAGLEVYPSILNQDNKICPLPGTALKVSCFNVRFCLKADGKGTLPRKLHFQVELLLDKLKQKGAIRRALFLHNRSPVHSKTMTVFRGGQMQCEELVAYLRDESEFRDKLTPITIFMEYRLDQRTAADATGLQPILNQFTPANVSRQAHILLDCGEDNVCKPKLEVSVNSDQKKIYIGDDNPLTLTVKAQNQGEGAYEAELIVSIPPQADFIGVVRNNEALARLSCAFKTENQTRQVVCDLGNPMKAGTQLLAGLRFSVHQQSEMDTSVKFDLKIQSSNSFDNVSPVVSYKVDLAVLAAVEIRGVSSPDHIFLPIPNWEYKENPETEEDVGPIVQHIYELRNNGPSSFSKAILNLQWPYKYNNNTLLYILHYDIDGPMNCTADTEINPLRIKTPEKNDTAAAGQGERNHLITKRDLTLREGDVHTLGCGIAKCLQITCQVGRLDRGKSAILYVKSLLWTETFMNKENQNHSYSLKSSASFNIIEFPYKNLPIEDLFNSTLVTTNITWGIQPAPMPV
T1 sequence (Q9Z0T9 22-707 limits assumed): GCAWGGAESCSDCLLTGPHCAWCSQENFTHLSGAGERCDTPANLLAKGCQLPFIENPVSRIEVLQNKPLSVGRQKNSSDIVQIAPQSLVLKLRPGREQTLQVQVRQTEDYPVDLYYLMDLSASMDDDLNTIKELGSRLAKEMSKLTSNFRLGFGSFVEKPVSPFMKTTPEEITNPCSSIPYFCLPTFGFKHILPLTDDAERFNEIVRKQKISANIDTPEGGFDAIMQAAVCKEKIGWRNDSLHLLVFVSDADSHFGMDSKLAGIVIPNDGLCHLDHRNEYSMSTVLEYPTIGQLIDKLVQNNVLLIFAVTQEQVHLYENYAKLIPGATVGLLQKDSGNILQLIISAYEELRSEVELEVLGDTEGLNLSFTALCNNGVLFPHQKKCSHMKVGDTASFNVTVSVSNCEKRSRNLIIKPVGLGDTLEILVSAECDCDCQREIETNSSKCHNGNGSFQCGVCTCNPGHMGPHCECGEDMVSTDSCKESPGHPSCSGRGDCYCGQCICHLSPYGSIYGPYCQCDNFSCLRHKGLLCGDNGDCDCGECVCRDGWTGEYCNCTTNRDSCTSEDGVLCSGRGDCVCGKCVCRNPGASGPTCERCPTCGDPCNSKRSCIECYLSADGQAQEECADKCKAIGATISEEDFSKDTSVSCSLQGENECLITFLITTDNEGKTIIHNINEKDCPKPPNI
Test: direct integrin binding assay of peptide-IRDye conjugates, murine αvβ6-coated plates
Details: plates coated with recombinant murine αvβ6; conjugate 0.01-100 nM, 1 h; bound NIR fluorescence; mean ± SE, n = 3 experiments
Description: The affinity of peptide-IRDye conjugates for αvβ6 and αvβ8 integrins was determined by a direct binding assay using microtiter plates coated with αvβ6 or αvβ8 (Bio-Techne). After 1 h of incubation, the plates were washed; bound fluorescence was quantified by scanning the plates with an Odyssey CLx near-infrared fluorescence imaging system (LI-COR).
A control conjugate with a cysteine in place of the peptide was also prepared in parallel. The identity of the purified products, called 5a-IRDye, 2a-IRDye, and Cys-IRDye, was confirmed by mass spectrometry analysis (Table S1). In addition, the purity and identity of 5a-IRDye was monitored by liquid chromatography–mass spectrometry (LC-MS). […]
that the product consist of a single peak at 230 and 735 nm with the expected molecular weight (purity >95%) (Figure S3A).
The simplified molecular-input line-entry system (SMILES) of 5a-, 2a-, Cys- and 5a-Scr- […]
The concentration of each conjugate was quantified by spectrophotometric analysis at 774 nm (molar absorption coefficient, 240,000 M-1, cm-1) (Figure S3B). The final yield of 5a-IRDye […]
Binding of peptide-IRDye conjugates to avb6 and avb8 integrin
The binding affinity of peptide-IRDye conjugates for human and murine avb6 and avb8 integrins was determined as follows: 96-well clear-bottom black microtiter plates (Corning® cat. 3601) were coated with 2 μg/ml avb6 or avb8 (50 µl/well), in Dulbecco’s phosphate-buffered saline containing Ca2+ and Mg2+ (DPBS) and left to incubate overnight at 4°C. […]
The binding of peptide-IRDye conjugates to BxPC-3, 5M7101, and HUVECs cells was analyzed as follows. […]
conjugates were added to the microtiterplates and incubated at room temperature for 1 h (see Experimental Section). After washing, bound fluorescence was measured using an Odyssey CLx (LI-COR) scanner. Representative images of the scanned plates and quantification of binding are shown. […]

Row | EC50 [nM] | SMILES
1 | > 100 | CC[C@H](C)[C@H](NC(=O)[C@H](CCCNC(=N)N)NC(=O)[C@H](CCC(=O)O)NC(=O)[C@H](CCC(=O)O)NC(=O)CNC(=O)[C@H](CCCNC(=N)N)NC(=O)[C@H](CC(C)C)NC(=O)[C@@H](NC(=O)[C@H](CCC(=O)O)NC(=O)[C@H](Cc1ccccc1)NC(=O)[C@@H](N)CSC1CC(=O)N(CCNC(=O)CCCCCN2/C(=C\C=C3\CCCC(/C=C/C4=[N+](CCCCS(=O)(=O)O)c5ccc(S(=O)(=O)[O-])cc5C4(C)C)=C3Oc3ccc(S(=O)(=O)O)cc3)C(C)(C)c3cc(S(=O)(=O)O)ccc32)C1=O)[C@@H](C)O)C(=O)N[C@@H](CC(C)C)C(=O)N[C@@H](CO)C(=O)N[C@H](C(=O)N[C@@H](CC(C)C)C(=O)N[C@@H](CCCNC(=N)N)C(=O)N[C@@H](Cc1c[nH]cn1)C(=O)N[C@@H](CCC(N)=O)C(=O)N[C@@H](CC(N)=O)C(=O)N[C@@H](CC(C)C)C(=O)N[C@@H](CC(C)C)C(=O)N[C@@H](CCCCN)C(=O)N[C@@H](CCC(=O)O)C(=O)N[C@@H](CC(C)C)C(=O)N[C@@H](CCC(N)=O)C(=O)N[C@@H](CC(=O)O)C(N)=O)[C@@H](C)CC (stereo partly drawn) [2a-IRDye] (H-C(X1)FETLRGEERILSILRHQNLLKELQD-NH2)
2 | 0.9 ± 0.35 | CC[C@H](C)[C@H](NC(=O)[C@H](CCCNC(=N)N)NC(=O)[C@H](CC(C)C)NC(=O)[C@H](CC(=O)O)NC(=O)CNC(=O)[C@H](CCCNC(=N)N)NC(=O)[C@H](CC(C)C)NC(=O)[C@@H](NC(=O)[C@H](CCC(=O)O)NC(=O)[C@H](Cc1ccccc1)NC(=O)[C@@H](N)CSC1CC(=O)N(CCNC(=O)CCCCCN2C(=CC=C3CCCC(C=CC4=[N+](CCCCS(=O)(=O)[O-])c5ccc(S(=O)(=O)O)cc5C4(C)C)=C3Oc3ccc(S(=O)(=O)O)cc3)C(C)(C)c3cc(S(=O)(=O)O)ccc32)C1=O)[C@@H](C)O)C(=O)N[C@@H](CC(C)C)C(=O)N[C@@H](CO)C(=O)N[C@H](C(=O)N[C@@H](CC(C)C)C(=O)N[C@@H](CCCNC(=N)N)C(=O)N[C@H]1Cc2cn(nn2)CCCC[C@@H](C(=O)N[C@@H](CCCCN)C(=O)N[C@@H](CCC(=O)O)C(=O)N[C@@H](CC(C)C)C(=O)N[C@@H](CCC(N)=O)C(=O)N[C@@H](CC(=O)O)C(N)=O)NC(=O)[C@H](CC(C)C)NC(=O)[C@H](CC(N)=O)NC(=O)[C@H](CCC(N)=O)NC1=O)[C@@H](C)CC (stereo partly drawn) [5a-IRDye]
3 | > 100 | CC1(C)C(/C=C/C2=C(Oc3ccc(S(=O)(=O)O)cc3)C(=C\C=C3/N(CCCCCC(=O)NCCN4C(=O)CC(SC[C@H](N)C(=O)O)C4=O)c4ccc(S(=O)(=O)O)cc4C3(C)C)/CCC2)=[N+](CCCCS(=O)(=O)O)c2ccc(S(=O)(=O)[O-])cc21 (stereo partly drawn) [Cys-IRDye]
